Measurements published in patent US10945972B2, “Particulate materials” (Nektar Therapeutics, priority 2002, dated 2021).
Read-outs that look alike come from different tables or passages of the source. Each block holds one compound with its values, some of them ahead of it.

Legend:
[1] = BET nitrogen adsorption specific surface area (Example 2); type: physicochemical
Procedure: Data on specific surface areas required for IGC studies were determined by BET nitrogen adsorption using a Surface Area Analyzer Coulter SA 3100 (Coulter Corp., Miami, Fla., USA). Samples were placed in glass sample holders and out-gassed with helium (purity >99.999%) at 40° C. for 16 hours before analysis. Nitrogen (purity >99.999%) was used as adsorbate and BET surface area was recorded as specific surface area of the samples. All measurements were performed in triplicate using the same batch of each material.

[2] = Inverse gas chromatography of SX powders (Example 2); details: for KA: acidity parameter; for γs^D (mJ/m^2): column at 40° C.; for −ΔGA^SP (kJ/mol) Acetone: probe acetone; for −ΔGA^SP (kJ/mol) Chloroform: probe chloroform; for −ΔGA^SP (kJ/mol) Diethyl ether: probe diethyl ether; for −ΔGA^SP (kJ/mol) Ethyl acetate: probe ethyl acetate; for −ΔGA^SP (kJ/mol) Tetrahydrofuran: probe tetrahydrofuran
[3] = Particle size by AeroSizer time-of-flight (Example 1); type: physicochemical; details: aerodynamic-equivalent volume mean diameter
Procedure: (§1) PSD measurements were performed using firstly, AEROSIZER® time-of-flight instrument equipped with AERO-[…]® (TSI Inc., Minneapolis. USA) and secondly, laser diffraction sensor Helos with dry-powder air-dispersion system Rodos (Sympatec GmbH. Germany). The volume mean particle diameter, VMD, was obtained for both instruments using software options. In the general case of non-spherical particles, these instruments cannot provide the exact value of VMD, however, the time-of-flight technique gives an aerodynamic-equivalent particle diameter, whereas the laser diffraction method provides the geometric projection-equivalent diameter. These diameters afford the complementary information on PSD and therefore can be used for comparative size analysis.

[4] = Particle size by Helos/Rodos laser diffraction (Example 1); type: physicochemical; details: geometric projection-equivalent volume mean diameter
Procedure: as §1

[5] = Inverse gas chromatography surface energy (Example 1); type: physicochemical; details: 303K; for ΔGA (kJ/mol) Diethyl ether: probe diethyl ether
Source text: For TBS and FHBr powders, IGC was done using a Hewlett Packard Series 6890 instrument which was specifically modified for IGC measurements by Surface Measurement Systems Ltd (Manchester, UK). The IGC method is described in detail by Tong et al. 2001. (Tong H. H. Y., B. Y. Shekunov, P. York, A. H. L. Chow, 2001. Pharm. Res. 18, 852.) Triplicate measurements in separate packed columns were made. […] The γS^D and ΔGA values were obtained at 303K.

[6] = Laser diffraction particle size analysis HELOS/RODOS (Example 2); type: physicochemical; details: for mean particle size d4,3: LD technique
Procedure: The instrument consisted of laser diffraction sensor HELOS and dry-powder air-dispersion system RODOS (Sympatec GmbH. Germany) with WINDOX OS computer interface. The dispersion process was controlled by means of adjusting pressure of the compressed air flow between 0.5 and 5 bar. […] All measurements were performed in triplicate. The particle shape factor, f, was calculated as f=Sv/Sv*. where Sv is the experimental specific surface area and Sv* is the specific surface area determined using the LD instrument assuming the particle sphericity.

[7] = Triboelectrification in turbula mixer, charge and adhesion; type: physicochemical; details: for Q (nCg^−1) After mixing: 5 minutes at 30 rpm
Procedure: (§2) Triboelectrification was undertaken against a stainless steel contact surface using either a turbula mixer or a cyclone separator. Triboelectrification in a turbula mixer (Glen Creston, UK) was carried out by agitating a powder sample for 5 minutes at 30 rpm in a 100 ml stainless steel vessel at ambient temperature and relative humidity. A sample was poured in a reproducible manner into a Faraday well connected to an electrometer (Keithley 610, Keithley Instruments, Reading, UK). Charge and mass of sample was then recorded to give specific charge before and after triboelectrification. % w/w adhesion to the inner surface of the mixing vessel was calculated from the original mass of sample and the mass of sample poured into the Faraday well. During triboelectrification in a cyclone separator, a powder was fed from a steel vibratory table into a venturi funnel. Compressed air (velocity 8 m/s. relative humidity below 10%, ambient temperature) was used to convey the powder from the venturi along a horizontal pipe into the cyclone separator. The Faraday well and force compensation load cell was fitted at the base of the cyclone and used to collect charged particles. Final specific charge was recorded for non-adhered powder residing in the Faraday well and, where possible, powder adhering to the cyclone wall was dislodged by a stream of air and its charge and mass recorded. In both cases, the results were obtained from triplicate measurements.

[8] = Triboelectrification in cyclone separator, charge and adhesion; type: physicochemical
Procedure: as §2

[9] = Bulk powder density (Example 2); type: physicochemical
[10] = Electrostatic charge in Faraday well (Example 3); type: physicochemical
Source text: Surface charge was examined by placing weighed portions of the samples in a Faraday well to measure their electrostatic charge.

[11] = Simple adhesion test in rotated glass jar (Example 3); type: physicochemical; details: glass jar rotated for 5 minutes
Procedure: In this test, a small quantity of powder was weighed into a screw topped glass jar and the jar rotated for 5 minutes. The non-adhering powder was then tipped from the jar and weighed and the percentage powder adhering to the walls of the jar calculated.

[12] = Laser diffraction HELOS/RODOS of TBS (Example 8); type: physicochemical; details: 2 bar
Procedure: A small amount of TBS powder was analysed using a laser diffraction RODOS/VIBRI dispersing system (HELOS/RODOS, Sympatec GmbH, Clausthal-Zellerfeld, Germany). The instrument consisted of a laser sensor HELOS and a RODOS dry-powder air-dispersion system (Sympatec GmbH, Clausthal-Zellerfeld, Germany). Different measurement ranges of the laser sensor were provided by interchangeable objectives R1 (0.1-35 μm) and R2 (0.25-87.5 μm). The rate of powder dispersion was controlled by adjusting the pressure of the compressed air flow. A pressure of 2 bar was sufficient to achieve deagglomeration of primary particles without attrition.

[13] = AEROSIZER time-of-flight of TBS (Example 8); type: physicochemical
Procedure: The TBS samples were also analysed using an AEROSIZER™ (Amherst Process Instruments, Amherst, Mass., USA), provided with pulse jet disperser, the AERODISPERSER™, to introduce the powders to the instrument. The measurement range of the AEROSIZER™ is nominally from 0.2 to 200 μm of aerodynamic diameter with the standard 750 μm diameter tapered nozzle. The micronized and SEDS™ TBS samples were analyzed for 300 seconds in triplicate using normal deagglomeration conditions, feed rate (5000 particles per second) and medium shear force (0.5 psi).

[14] = Differential scanning calorimetry (Example 8); type: physicochemical; details: DSC, 10° C. min^−1
Procedure: Prior to sample analysis, a baseline was obtained which was used as a background. […] Temperature and enthalpy were calibrated with the standard materials indium (melting point=156.6° C.) and zinc (melting point=419.5° C.). Samples (1-10) were accurately weighed into pierced, crimped aluminium pans and heated at 10° C. min^−1 over a heating range of 25-290° C. under a nitrogen purge. A chiller unit was used in conjunction with the calorimeter to attain the lower temperatures.

[15] = Inverse gas chromatography of TBS (Example 8); type: physicochemical
Procedure: An empty GC column was uniformly packed with the powder of interest (TBS). Pre-silanized commercially available straight glass columns of 30 cm length with a 3 mm internal diameter were used in this investigation. The silanation procedure was necessary to minimize active sites on the inner glass surfaces, which strongly interact with polar probes. Each column was packed at the detector end with a small amount of silanised glass wool, was clipped to a stand and powder was added through a glass funnel with the aid of a mechanical column packer (tapping) to improve powder flow and remove any air gaps. […] A. Hewlett Packard 6890 Series Gas Chromatograph (GC) (Hewlett Packard, Penna, USA) oven equipped with an autosampler was used to control the solvent temperature. The 6890 GC data acquisition system was used to record data from a thermal conductivity detector (TCD) and flame ionisation detector (FID) with the instrument modified for IGC by Surface Measurement Systems (SMS), Manchester, UK. The combination of detectors allowed sensitive analysis of both organic vapour elution and water (although RH was not raised above 0% for these experiments).
The whole system was fully automated by control software (SMS iGC Controller v1.3) and the data analyzed using SMS iGC Analysis macros. Prior to analysis, each column was equilibrated at 30° C. and 0% relative humidity (RH) for 5 hours by passing dry helium gas through the column. Helium gas was also used as the carrier gas. Hydrogen and compressed air flow rates were set at 40 and 450 ml min respectively for the FID. The chromatograph injection port was maintained at 80° C., TCD detector at 150° C. and the FID detector at 150° C. Column temperature was set at 30° C. throughout analysis. Data were obtained by flowing helium gas at 10 ml min^−1 through the sinalized glass column packed with a known weight of powdered material and injecting small amounts (concentration P/Po=0.05) of a range of probe vapors with different polarities. The retention times of the probes were measured using SMS iGC Controller v1.3 software, at infinite dilution or near zero surface coverage (equivalent to 10^−4-10^−7 μl of liquid) where retention is independent of the quantity of probe injected. For each sample, two columns were prepared and analysed by employing a method based on standard settings, which allows the precise control and measurement of experimental variables. This is essential in producing meaningful results. The data were used to calculate the dispersive and non-dispersive forces acting at TBS particle surfaces using the method developed by Schultz and co-workers (J. Schultz, L. Lavielle and C. Martin. The role of the interface in carbon fibre-epoxy composites, J. Adhesion, 23, 45-60 (1987)).

SV (specific surface area) [1]: 10.699
KA [2]: 0.233
γs^D (mJ/m^2) [2]: 36.972 mJ/m^2
−ΔGA^SP (kJ/mol) Acetone [2]: 5.454 kJ/mol
−ΔGA^SP (kJ/mol) Chloroform [2]: 1.885 kJ/mol
−ΔGA^SP (kJ/mol) Diethyl ether [2]: 2.958 kJ/mol
−ΔGA^SP (kJ/mol) Ethyl acetate [2]: 4.739 kJ/mol
−ΔGA^SP (kJ/mol) Tetrahydrofuran [2]: 4.854 kJ/mol
Compound: OCc1cc(C(O)CNCCCCCCOCCCCc2ccccc2)ccc1O (centres unmarked) [G-SX, Salmeterol xinafoate]

VMD (μm) (Time of flight) [3]: 1.2 μm
VMD (μm) (laser diffraction) [4]: 1.69 μm
γs^D (mJ/m^2) [5]: 40.49 mJ/m^2
ΔGA (kJ/mol) Acetone ([5]; probe acetone): 15.24 kJ/mol
ΔGA (kJ/mol) Chloroform ([5]; probe chloroform): 14.78 kJ/mol
ΔGA (kJ/mol) Diethyl ether [5]: 14.20 kJ/mol
ΔGA (kJ/mol) Ethyl acetate ([5]; probe ethyl acetate): 17.46 kJ/mol
SV (specific surface area) ([1]; listed as M-SX): 9.243
mean particle size d4,3 ([6]; listed as M-SX): 1.8 μm
f (particle shape factor, f=Sv/Sv*) ([6]; listed as M-SX): 2.80
Q (nCg^−1) After mixing ([7]; listed as M-SX): −42.6 nCg^−1
AD (% w/w), fraction of adhered material ([7]; listed as M-SX): 27 % w/w
Q (nCg^−1) Before mixing ([7]; listed as M-SX): −12.1 nCg^−1
AD (% w/w), fraction of adhered material ([8]; listed as M-SX): 16.7 % w/w
Q (nCg^−1) After mixing ([8]; listed as M-SX): −49.7 nCg^−1
Q (nCg^−1) Before mixing ([8]; listed as M-SX): −48.4 nCg^−1
bulk powder density ([9]; listed as M-SX): 0.5 g/mL
KA ([2]; listed as M-SX): 0.172
γs^D (mJ/m^2) ([2]; listed as M-SX): 38.285 mJ/m^2
−ΔGA^SP (kJ/mol) Acetone ([2]; listed as M-SX): 4.560 kJ/mol
−ΔGA^SP (kJ/mol) Chloroform ([2]; listed as M-SX): 0.810 kJ/mol
−ΔGA^SP (kJ/mol) Diethyl ether ([2]; listed as M-SX): 2.774 kJ/mol
−ΔGA^SP (kJ/mol) Ethyl acetate ([2]; listed as M-SX): 3.995 kJ/mol
−ΔGA^SP (kJ/mol) Tetrahydrofuran ([2]; listed as M-SX): 3.609 kJ/mol
Compound: OCc1cc(C(O)CNCCCCCCOCCCCc2ccccc2)ccc1O (centres unmarked) [SX Micronised, salmeterol xinafoate, reference compound]

VMD (μm) (Time of flight) [3]: 1.6 μm
VMD (μm) (laser diffraction) [4]: 3.56 μm
γs^D (mJ/m^2) [5]: 34.55 mJ/m^2
ΔGA (kJ/mol) Diethyl ether [5]: 12.65 kJ/mol
SV (specific surface area) ([1]; listed as S-SX): 7.040
mean particle size d4,3 ([6]; listed as S-SX): 3.5 μm
f (particle shape factor, f=Sv/Sv*) ([6]; listed as S-SX): 3.78
Q (nCg^−1) After mixing ([7]; listed as S-SX): −0.17 nCg^−1
AD (% w/w), fraction of adhered material ([7]; listed as S-SX): 1.5 % w/w
Q (nCg^−1) Before mixing ([7]; listed as S-SX): −0.52 nCg^−1
AD (% w/w), fraction of adhered material ([8]; listed as S-SX): 5.5 % w/w
Q (nCg^−1) After mixing ([8]; listed as S-SX): −34.6 nCg^−1
Q (nCg^−1) Before mixing ([8]; listed as S-SX): 4.9 nCg^−1
bulk powder density ([9]; listed as S-SX): about 0.1 g/cm^3
magnitude of γS^D smaller than for M-SX and G-SX [2]: 15%
KA ([2]; listed as S-SX): 0.110
γs^D (mJ/m^2) ([2]; listed as S-SX): 32.476 mJ/m^2
−ΔGA^SP (kJ/mol) Acetone ([2]; listed as S-SX): 3.797 kJ/mol
−ΔGA^SP (kJ/mol) Chloroform ([2]; listed as S-SX): 0.153 kJ/mol
−ΔGA^SP (kJ/mol) Dichloromethane ([2]; probe dichloromethane): 2.808 kJ/mol
−ΔGA^SP (kJ/mol) Diethyl ether ([2]; listed as S-SX): 1.488 kJ/mol
−ΔGA^SP (kJ/mol) Ethyl acetate ([2]; listed as S-SX): 2.705 kJ/mol
−ΔGA^SP (kJ/mol) Tetrahydrofuran ([2]; listed as S-SX): 2.446 kJ/mol
Compound: OCc1cc(C(O)CNCCCCCCOCCCCc2ccccc2)ccc1O (centres unmarked) [SX SEDS, salmeterol xinafoate]

Electrostatic Charge (nC/g) [10]: −42.6 nC/g
Relative Powder Adhesion (to container walls) [11]: 18.6
Sympatec D4, 3 (μm) [12]: 3.04 μm
Aerosizer D4, 3 (μm) [13]: 2.69 μm
Enthalpy of Fusion [14]: 121.76 J/g
KA [15]: 0.892
γs^D mJm^−2 ([15]; 30° C., 0% RH): 58.61 mJm^−2
−ΔGA^SP (kJ/mol) Acetone ([15]; probe acetone): 12.57 kJ/mol
−ΔGA^SP (kJ/mol) Chloroform ([15]; probe chloroform): 1.79 kJ/mol
−ΔGA^SP (kJ/mol) Dioxane ([15]; probe dioxane): 15.96 kJ/mol
−ΔGA^SP (kJ/mol) Ethyl acetate ([15]; probe ethyl acetate): 16.01 kJ/mol
−ΔGA^SP (kJ/mol) Toluene ([15]; probe toluene): 3.42 kJ/mol
Compound: salbutamol sulphate [Micronised, reference compound]

Electrostatic Charge (nC/g) [10]: −0.2 nC/g
Relative Powder Adhesion (to container walls) [11]: 1.0
Compound: salbutamol sulphate [SEDS]

Electrostatic Charge (nC/g) [10]: −23.1 nC/g
Relative Powder Adhesion (to container walls) [11]: 8.6
Compound: salbutamol sulphate [Unprocessed]
